Test results published in patent US8772343B2, “Chemical compounds” (Pfizer Limited, priority 2010, dated 2014).
Structures can show the parent of a compound that is named as a salt.

What follows are compounds tested against T1, Nav1.7 (or SCN9A) channel (Homo sapiens, UniProt Q15858) (assay: Nav1.7 PatchXpress automated whole-cell electrophysiology in HEK cells expressing hSCN9A). Conditions: estimated IC50 from single point data, PatchXpress assay, held at V1/2 of inactivation, read-out: Nav1.7 EIC50.
T1 construct: expressed in transfected cells
Assay type: cell-based
Description: The ability of the compounds of formula (I) to block the Nav1.7 (or SCN9A) channel were measured using the assay described below.
Human Embryonic Kidney (HEK) cells were transfected with an hSCN9A construct using lipofectamine reagent (Invitrogen), using standard techniques. Cells stably expressing the hSCN9A constructs were identified by their resistance to G-418 (400 μg/ml). Clones were screened for expression using the whole-cell voltage-clamp technique.
HEK cells stably transfected with hSCN9A were maintained in DMEM medium supplemented with 10% heat-inactivated fetal bovine serum and 400 μg/ml G-418 in an incubator at 37° C. with a humidified atmosphere of 10% CO2. For HTS, cells were harvested from flasks by trypsinization and replated in an appropriate multi-well plate (typically 96 or 384 wells/plate) such that confluence would be achieved within 24 hours of plating. For electrophysiological studies, cells were removed from the culture flask by brief trypsinization and re-plated at low density onto glass cover slips. Cells were typically used for electrophysiological experiments within 24 to 72 hours after plating.
Cover slips containing HEK cells expressing hSCN9A were placed in a bath on the stage of an inverted microscope and perfused (approximately 1 ml/minutes) with extracellular solution of the following composition: 138 mM NaCl, 2 mM CaCl2, 5.4 mM KCl, 1 mM MgCl2, 10 mM glucose, and 10 mM HEPES, pH 7.4, with NaOH. […] The osmolarity of the extracellular and intracellular solutions was 300 mOsm/kg and 295 mOsm/kg, respectively. All recordings were made at room temperature (22-24° C.) using AXOPATCH 200B amplifiers and PCLAMP software (Axon Instruments, Burlingame, Calif.).
hSCN9A currents in HEK cells were measured using the whole-cell configuration of the patch-clamp technique (Hamill et al., 1981). Uncompensated series resistance was typically 2 to 5 mega ohms and >85% series resistance compensation was routinely achieved. As a result, voltage errors were negligible and no correction was applied. Current records were acquired at 20 to 50 KHz and filtered at 5 to 10 KHz.
HEK cells stably transfected with hSCN9A were viewed under Hoffman contrast optics and placed in front of an array of flow pipes emitting either control or compound-containing extracellular solutions. All compounds were dissolved in dimethyl sulfoxide to make 10 mM stock solutions, which were then diluted into extracellular solution to attain the final concentrations desired. […] The voltage-dependence of inactivation was determined by applying a series of depolarizing prepulses (8 sec long in 10 mV increments) from a negative holding potential. The voltage was then immediately stepped to 0 mV to assess the magnitude of the sodium current. Currents elicited at 0 mV were plotted as a function of prepulse potential to allow estimation of the voltage at which 50% of the channels were inactivated (midpoint of inactivation or V1/2). Compounds were tested for their ability to inhibit hSCN9A sodium channels by activating the channel with a 20 msec voltage step to 0 mV following an 8 second conditioning prepulse to the empirically determined V1/2. Compound effect (% inhibition) was determined by difference in current amplitude before and after application of test compounds. For ease of comparison, “estimated IC-50” (EIC50) values were calculated from single point electrophysiology data by the following equation, (tested concentration, uM)×(100-% inhibition/% inhibition). Inhibition values<20% and >80% were excluded from the calculation.
Electrophysiological assays were conducted with PatchXpress 7000 hardware and associated software (Molecular Devices Corp). All assay buffers and solutions were identical to those used in conventional whole-cell voltage clamp experiments described above. hSCN9A cells were grown as above to 50%-80% confluency and harvested by trypsinization. […]

T1 sequence (Q15858 whole entry): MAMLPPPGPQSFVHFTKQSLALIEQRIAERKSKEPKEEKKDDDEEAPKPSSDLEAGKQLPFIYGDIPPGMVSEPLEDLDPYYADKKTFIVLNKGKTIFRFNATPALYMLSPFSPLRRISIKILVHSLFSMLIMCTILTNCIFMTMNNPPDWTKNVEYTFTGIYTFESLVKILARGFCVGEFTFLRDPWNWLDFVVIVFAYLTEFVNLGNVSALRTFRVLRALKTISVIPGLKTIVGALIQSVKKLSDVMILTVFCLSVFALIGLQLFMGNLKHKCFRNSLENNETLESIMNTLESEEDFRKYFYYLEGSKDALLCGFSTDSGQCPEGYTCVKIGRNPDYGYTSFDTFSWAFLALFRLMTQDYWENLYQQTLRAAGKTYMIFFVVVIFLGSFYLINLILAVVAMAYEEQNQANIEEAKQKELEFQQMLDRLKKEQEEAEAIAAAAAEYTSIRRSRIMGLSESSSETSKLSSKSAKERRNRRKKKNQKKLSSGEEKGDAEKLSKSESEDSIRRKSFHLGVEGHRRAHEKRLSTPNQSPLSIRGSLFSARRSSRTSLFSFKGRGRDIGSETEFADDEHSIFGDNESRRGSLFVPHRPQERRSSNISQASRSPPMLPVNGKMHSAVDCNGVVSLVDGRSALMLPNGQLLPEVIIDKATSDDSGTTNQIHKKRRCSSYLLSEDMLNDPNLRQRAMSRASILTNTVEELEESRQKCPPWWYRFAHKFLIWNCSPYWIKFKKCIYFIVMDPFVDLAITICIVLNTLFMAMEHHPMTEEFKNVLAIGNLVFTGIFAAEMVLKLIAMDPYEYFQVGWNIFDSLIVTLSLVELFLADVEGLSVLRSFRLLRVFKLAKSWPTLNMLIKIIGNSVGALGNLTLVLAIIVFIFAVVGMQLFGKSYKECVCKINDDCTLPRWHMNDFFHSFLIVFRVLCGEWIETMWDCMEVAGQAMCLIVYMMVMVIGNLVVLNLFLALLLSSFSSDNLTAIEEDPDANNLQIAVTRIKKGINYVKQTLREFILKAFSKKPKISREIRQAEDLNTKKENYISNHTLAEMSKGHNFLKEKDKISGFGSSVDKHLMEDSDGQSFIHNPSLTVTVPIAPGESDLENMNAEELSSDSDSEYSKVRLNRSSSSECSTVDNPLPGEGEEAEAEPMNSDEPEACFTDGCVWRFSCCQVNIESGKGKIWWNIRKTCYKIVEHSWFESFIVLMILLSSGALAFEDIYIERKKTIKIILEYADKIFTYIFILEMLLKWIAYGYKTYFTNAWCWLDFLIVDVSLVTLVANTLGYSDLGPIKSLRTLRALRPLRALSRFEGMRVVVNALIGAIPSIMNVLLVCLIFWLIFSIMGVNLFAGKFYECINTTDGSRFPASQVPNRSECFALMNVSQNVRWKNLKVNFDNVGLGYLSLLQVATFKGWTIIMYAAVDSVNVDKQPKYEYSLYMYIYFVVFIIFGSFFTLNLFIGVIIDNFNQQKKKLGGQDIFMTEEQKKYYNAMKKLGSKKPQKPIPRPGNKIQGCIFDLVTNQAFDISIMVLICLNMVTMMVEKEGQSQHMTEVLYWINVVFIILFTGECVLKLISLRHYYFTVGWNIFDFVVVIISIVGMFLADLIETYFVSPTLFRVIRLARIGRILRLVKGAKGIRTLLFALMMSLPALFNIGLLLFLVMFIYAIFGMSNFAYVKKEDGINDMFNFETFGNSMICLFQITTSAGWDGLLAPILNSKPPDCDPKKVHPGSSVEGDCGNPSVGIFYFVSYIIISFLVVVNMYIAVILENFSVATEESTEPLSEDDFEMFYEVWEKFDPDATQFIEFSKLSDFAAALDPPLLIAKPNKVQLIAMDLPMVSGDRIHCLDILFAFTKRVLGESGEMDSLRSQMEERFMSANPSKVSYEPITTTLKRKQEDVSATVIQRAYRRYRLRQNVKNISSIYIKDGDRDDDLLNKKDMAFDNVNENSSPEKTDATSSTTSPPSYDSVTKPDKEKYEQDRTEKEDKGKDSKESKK

`COc1cc(Cl)ccc1Oc1ccc(C(=O)NS(C)(=O)=O)cc1-c1cccnc1OC` [Example 1, 4-(4-chloro-2-methoxyphenoxy)-3-(2-methoxypyridin-3-yl)-N-(methylsulfonyl)benzamide diethylamine salt] was tested. Which IC50 did it give?
The IC50 was 2700 nM.

Which IC50 does the source give for `COc1ncccc1-c1cc(C(=O)NS(C)(=O)=O)ccc1Oc1ccc(OCC(C)C)nc1` [Example 2, 4-[(6-isobutoxypyridin-3-yl)oxy]-3-(2-methoxypyridin-3-yl)-N-(methylsulfonyl)benzamide diethylamine salt] here?
The IC50 was 220 nM.

With `COc1cccnc1-c1cc(C(=O)NS(C)(=O)=O)ccc1Oc1ccc(Cl)cc1` [Example 3, 4-(4-chlorophenoxy)-3-(3-methoxypyridin-2-yl)-N-(methylsulfonyl)benzamide] as the compound, how does the IC50 read?
Its IC50 is 990 nM.

`COc1cc(Cl)ccc1Oc1cc(F)c(C(=O)NS(C)(=O)=O)cc1-c1cccnc1OC` [Example 4, 4-(4-chloro-2-methoxyphenoxy)-2-fluoro-5-(2-methoxypyridin-3-yl)-N-(methylsulfonyl)benzamide] was tested. Which IC50 did it give?
Its IC50 is 4500 nM.

How did the IC50 turn out when `COc1ncccc1-c1cc(C(=O)NS(C)(=O)=O)ccc1Oc1ccccc1` [Example 5, 3-(2-methoxypyridin-3-yl)-N-(methylsulfonyl)-4-phenoxybenzamide] was run?
The IC50 was 900 nM.

For `COc1ncccc1-c1cc(C(=O)NS(=O)(=O)C2CC2)ccc1Oc1ccccc1` [Example 6, N-(cyclopropylsulfonyl)-3-(2-methoxypyridin-3-yl)-4-phenoxybenzamide], which IC50 is on record?
Its IC50 is 1300 nM.

How did the IC50 turn out when `COc1ncccc1-c1cc(C(=O)NS(C)(=O)=O)ccc1Oc1cnc(OC(C)C)c(Cl)c1` [Example 7, 4-[(5-Chloro-6-isopropoxypyridin-3-yl)oxy]-3-(2-methoxypyridin-3-yl)-N-(methylsulfonyl)benzamide] was run?
The IC50 was 66 nM.

For `CCOc1ncccc1-c1cc(C(=O)NS(C)(=O)=O)ccc1Oc1ccc(Cl)cc1` [Example 8, 4-(4-Chlorophenoxy)-3-(2-ethoxypyridin-3-yl)-N-(methylsulfonyl)benzamide], which IC50 is on record?
Its IC50 is 49 nM.

`CS(=O)(=O)NC(=O)c1ccc(Oc2ccc(Cl)cc2)c(-c2ccc(F)cc2)c1` [Example 9, 6-(4-Chlorophenoxy)-4′-fluoro-N-(methylsulfonyl)biphenyl-3-carboxamide] was tested. Which IC50 did it give?
Its IC50 is 110 nM.

With `CS(=O)(=O)NC(=O)c1ccc(Oc2ccc(Cl)cc2)c(-c2cc[nH]n2)c1` [Example 10, 4-(4-Chlorophenoxy)-N-(methylsulfonyl)-3-(1H-pyrazol-3-yl)benzamide] as the compound, how does the IC50 read?
Its IC50 is 940 nM.

Which IC50 does the source give for `CCOc1ccc(-c2cc(C(=O)NS(C)(=O)=O)ccc2Oc2ccc(Cl)cc2)cc1` [Example 12, 6-(4-chlorophenoxy)-4′-ethoxy-N-(methylsulfonyl)-biphenyl-3-carboxamide] here?
Its IC50 is 3500 nM.

How did the IC50 turn out when `Cc1n[nH]c(C)c1-c1cc(C(=O)NS(C)(=O)=O)ccc1Oc1ccc(Cl)cc1` [Example 14, 4-(4-chlorophenoxy)-3-(3,5-dimethyl-1H-pyrazol-4-yl)-N-(methylsulfonyl)benzamide] was run?
The IC50 was greater than 3000 nM.

With `COc1ccccc1-c1cc(C(=O)NS(C)(=O)=O)ccc1Oc1ccc(Cl)cc1` [Example 15, 6-(4-chlorophenoxy)-2′-methoxy-N-(methylsulfonyl)-biphenyl-3-carboxamide] as the compound, how does the IC50 read?
Its IC50 is 180 nM.

Which IC50 does the source give for `COc1ccc(-c2cc(C(=O)NS(C)(=O)=O)ccc2Oc2ccc(Cl)cc2)cn1` [Example 16, 4-(4-chlorophenoxy)-3-(6-methoxypyridin-3-yl)-N-(methylsulfonyl)benzamide] here?
The IC50 was 910 nM.

How did the IC50 turn out when `CS(=O)(=O)NC(=O)c1ccc(Oc2ccc(Cl)cc2)c(-c2ccccc2F)c1` [Example 18, 6-(4-chlorophenoxy)-2′-fluoro-N-(methylsulfonyl)-biphenyl-3-carboxamide] was run?
Its IC50 is 570 nM.

`CCOc1cccc(-c2cc(C(=O)NS(C)(=O)=O)ccc2Oc2ccc(Cl)cc2)c1` [Example 20, 6-(4-chlorophenoxy)-3′-ethoxy-N-(methylsulfonyl)-biphenyl-3-carboxamide] was tested. Which IC50 did it give?
The IC50 was 820 nM.

Which IC50 does the source give for `CS(=O)(=O)NC(=O)c1ccc(Oc2ccc(Cl)cc2)c(-c2ccncc2)c1` [Example 21, 4-(4-chlorophenoxy)-N-(methylsulfonyl)-3-pyridin-4-ylbenzamide] here?
Its IC50 is 4600 nM.

For `CS(=O)(=O)NC(=O)c1ccc(Oc2ccc(Cl)cc2)c(-c2cncnc2)c1` [Example 23, 4-(4-chlorophenoxy)-N-(methylsulfonyl)-3-pyrimidin-5-ylbenzamide], which IC50 is on record?
Its IC50 is 2800 nM.

How did the IC50 turn out when `CS(=O)(=O)NC(=O)c1ccc(Oc2ccc(Cl)cc2)c(-c2ccccc2OC(F)(F)F)c1` [Example 24, 6-(4-chlorophenoxy)-N-(methylsulfonyl)-2′-(trifluoromethoxy)biphenyl-3-carboxamide] was run?
The IC50 was 500 nM.

`Cn1nccc1-c1cc(C(=O)NS(C)(=O)=O)ccc1Oc1ccc(Cl)cc1` [Example 27, 4-(4-chlorophenoxy)-3-(1-methyl-1H-pyrazol-5-yl)-N-(methylsulfonyl)benzamide] was tested. Which IC50 did it give?
The IC50 was greater than 3000 nM.

With `COc1cccc(-c2cc(C(=O)NS(C)(=O)=O)ccc2Oc2ccc(Cl)cc2)c1` [Example 29, 6-(4-chlorophenoxy)-3′-methoxy-N-(methylsulfonyl)-biphenyl-3-carboxamide] as the compound, how does the IC50 read?
Its IC50 is 570 nM.

With `CS(=O)(=O)NC(=O)c1ccc(Oc2ccc(Cl)cc2)c(-c2ccccc2Cl)c1` [Example 31, 2′-chloro-6-(4-chlorophenoxy)-N-(methylsulfonyl)-biphenyl-3-carboxamide] as the compound, how does the IC50 read?
Its IC50 is 270 nM.

With `CCOc1ccccc1-c1cc(C(=O)NS(C)(=O)=O)ccc1Oc1ccc(Cl)cc1` [Example 32, 6-(4-chlorophenoxy)-2′-ethoxy-N-(methylsulfonyl)-biphenyl-3-carboxamide] as the compound, how does the IC50 read?
The IC50 was 120 nM.

With `CS(=O)(=O)NC(=O)c1ccc(Oc2ccc(Cl)cc2)c(-c2ccccc2C#N)c1` [Example 33, 6-(4-chlorophenoxy)-2′-cyano-N-(methylsulfonyl)-biphenyl-3-carboxamide] as the compound, how does the IC50 read?
The IC50 was 290 nM.

Which IC50 does the source give for `Cc1cc(-c2cc(C(=O)NS(C)(=O)=O)ccc2Oc2ccc(Cl)cc2)ccn1` [Example 34, 4-(4-chlorophenoxy)-3-(2-methylpyridin-4-yl)-N-(methylsulfonyl)benzamide] here?
Its IC50 is 8600 nM.

With `CS(=O)(=O)NC(=O)c1ccc(Oc2ccc(Cl)cc2)c(-c2ccccc2C(F)(F)F)c1` [Example 35, 6-(4-chlorophenoxy)-N-(methylsulfonyl)-2′-(trifluoromethyl)biphenyl-3-carboxamide] as the compound, how does the IC50 read?
The IC50 was 8000 nM.

How did the IC50 turn out when `COc1ncc(-c2cc(C(=O)NS(C)(=O)=O)ccc2Oc2ccc(Cl)cc2)cc1F` [Example 36, 4-(4-chlorophenoxy)-3-(5-fluoro-6-methoxypyridin-3-yl)-N-(methylsulfonyl)benzamide] was run?
Its IC50 is 3900 nM.

`CS(=O)(=O)NC(=O)c1ccc(Oc2ccc(Cl)cc2)c(-c2ccc(Cl)cn2)c1` [Example 37, 4-(4-chlorophenoxy)-3-(5-chloropyridin-2-yl)-N-(methylsulfonyl)benzamide] was tested. Which IC50 did it give?
Its IC50 is 340 nM.

How did the IC50 turn out when `Cc1ccc(-c2cc(C(=O)NS(C)(=O)=O)ccc2Oc2ccc(Cl)cc2)cn1` [Example 38, 4-(4-chlorophenoxy)-3-(6-methylpyridin-3-yl)-N-(methylsulfonyl)benzamide] was run?
Its IC50 is greater than 3000 nM.

`CS(=O)(=O)NC(=O)c1ccc(Oc2ccc(Cl)cc2)c(-c2ccc(C#N)nc2)c1` [Example 39, 4-(4-chlorophenoxy)-3-(6-cyanopyridin-3-yl)-N-(methylsulfonyl)benzamide] was tested. Which IC50 did it give?
Its IC50 is 1100 nM.

With `CCCn1cc(-c2cc(C(=O)NS(C)(=O)=O)ccc2Oc2ccc(Cl)cc2)cn1` [Example 41, 4-(4-chlorophenoxy)-N-(methylsulfonyl)-3-(1-propyl-1H-pyrazol-4-yl)benzamide] as the compound, how does the IC50 read?
The IC50 was greater than 3000 nM.

`COc1ccc(-c2cc(C(=O)NS(C)(=O)=O)ccc2Oc2ccc(Cl)cc2)c(C)n1` [Example 42, 4-(4-chlorophenoxy)-3-(6-methoxy-2-methylpyridin-3-yl)-N-(methylsulfonyl)benzamide] was tested. Which IC50 did it give?
Its IC50 is 7500 nM.
